Experimental data reported in US20250281480A1, “PHARMACEUTICAL DRY POWDER INHALATION FORMULATION” (Bayer Aktiengesellschaft, priority 2021, published 2025).

What was measured:
[1] = test system: chronic ovalbumin asthma mice model; assay: Chronic ovalbumin asthma mice model; details: mouse, in vivo
plasma proteins [2] = assay: Protein binding via Transil assay, monkey plasma; format: in vitro ADME
Excerpt: (§1) The distribution of a test substance between Transil® (phosphatidylcholine lipid bilayers immobilized on silica beads) and plasma is a characteristic feature of any pharmaceutical compound and is dependent on its extent of binding to plasma proteins. By comparing the distribution between Transil® and buffer with the distribution between Transil® and plasma of any species of interest, the unbound fraction in the plasma of the respective animal species can be calculated in vitro. The respective plasma and buffer concentrations were determined via a radioactivity analysis. A detailed description of the method and its validation was published by Schuhmacher et al. (2).

[3] = Deposited lung dose with absorbing filters and prediction of human dose (PAH minipig model); format: in vivo
Method: The anesthetized thromboxane A2 challenged PAH-minipig model (see experimental part E-1) is considered to be the most relevant and sensitive model for the prediction of the human minimal effective and effective doses (MED, ED). To determine effective LDs, experiments were repeated with the difference that absorbing filters were attached at the end of the tubes to determine the deposited lung dose. […] Assuming a minimal effective ND of 3 μg/kg (5% reduction in PAP) the minimal effective deposited LD is considered as 0.15 μg/kg (see FIG. 1).
The nominal doses of 3, 10, 30 and 100 μg/kg of the minipig model were multiplied by the filter deposition factor of 5% resulting in 0.15, 0.5, 1.5 and 5 μg/kg lung deposited doses in the minipig. These values were multiplied by 60 kg to achieve the lung dose in humans. Thus, the FPD reflecting the PAP reduction for a 60 kg human are calculated to be 9, 30, 90 and 300 μg.
Thus, via a direct up-scaling from minipig, the predictive MED (5% PAP reduction) for a human based on a 60 kg body weight is calculated to be 9 μg LDD, not considering protein binding within the respiratory tract. As a surrogate for unbound concentrations, which are the likely active concentrations in the lung, we considered respective differences in fractions unbound in plasma of minipig and human. This consideration results in a minimum effective lung dose (LD) for a 60 kg participant of 41 μg LDD for the assumed 5% reduction on PAP. Consequently, the predictive minimal human effective dose is in the range from 9 μg LDD to 41 μg LDD based on a 60 kg body weight (see FIG. 2).
In order to generate a human dose estimate, experiments in the PAH minipig model for comparative example 11 were repeated with the difference that absorbing filters were attached at the end of the tubes to […] determine the deposited lung dose. […] The arithmetic mean of the aerosol fraction deposited on the filters is 5% based on all results of the filter experiments, resulting in relative lung deposited doses of about 0.15 μg/kg (3 μg/kg nominal dose), 0.5 μg/kg (10 μg/kg nominal dose), 1.5 μg/kg (30 μg/kg nominal dose) and 5 μg/kg (100 μg/kg nominal dose). Assuming a minimal effective nominal dose of 3 μg/kg for a 5% reduction in PAP and a mean nebulization efficiency of 5%, the minimal effective deposited lung dose is considered as 0.15 μg/kg based on the PAH minipig model. Therefore, for a human patient of 60 kg body weight a minimal effective lung deposited dose of 9-41 μg, depending on whether or not an effect of different protein binding (see table 37) is postulated. Considering 100 μg/kg as effective dose in the minipig model, 300-1370 μg lung deposited dose is postulated as effective dose, again depending on the consideration of different interspecies protein binding.

plasma proteins [4] = assay: Protein binding via Transil assay, human plasma; format: in vitro ADME; details: human plasma
Excerpt: as §1

[5] = test system: unilateral ventilated minipig; assay: Unilateral ventilated minipig model as a proxy of VQ-mismatch; format: in vivo; details: inhaled application
[6] = Storage stability of pseudopolymorphic forms (XRPD); format: physicochemical; details: same storage conditions as table 15
[7] = test system: patients with PAH or CTEPH; assay: Phase 1b, inhaled single doses in patients with PAH or CTEPH: pulmonary vascular resistance (PVR), mPAP by right heart catheterization; format: in vivo, human
Method: Patients with PAH or CTEPH were treated in a clinical phase 1b study with escalating orally inhaled single doses* of 240 μg (2 capsules of 120 μg), 480 μg, 1000 μg, 2000 (2 capsules of 1000 μg) or […] (4 capsules of 1000 μg) of a dry powder of example 4 (see under C-1, e.g. tables 17 and 20), inserted into a handheld inhalation device, inhaled by deep inhalative breath into the deep parts of the lung. (*single dose means the administration of one dosage form/capsule as well as administration of two or more dosage forms/capsules simultaneously or consecutively within a short time period). The included patients had no background treatment with standard of care (SoC) medication for PAH or CTEPH (such as endothelin antagonists, prostanoids, phosphodiesterase type 5 inhibitor or soluble guanylate cyclase stimulators). Patients in this study underwent invasive right heart catheterization as medically indicated routine diagnostic. Primary objective of the study was to investigate the peak percent reduction from baseline in PVR. Patients had to have a baseline pulmonary artery pressure (mPAP) of ≥25 mmHg and a PVR of ≥400 dyn·sec·cm^−5 (5 Wood Units) and were not to show vaso-responsiveness to initial iNO inhalation testing to be included in the per protocol analysis. Plasma concentrations (pharmacokinetics) of the administered drug at several time points after administration were measured and safety and tolerability was assessed.
The study is divided into two parts, Part A and Part B. In Part A escalating aforementioned single doses were administered to patients without background treatment with standard of care (SoC) medication for PAH or CTEPH (such as endothelin antagonists, prostanoids, phosphodiesterase type 5 inhibitor or soluble guanylate cyclase stimulators). In Part B, after finalization of Part A, a selected dose from Part A will be tested in further patients without background SoC treatment (group 1) and additionally in patients on monotherapy with SoC (group 2) and on dual combination therapy with SoC (group 3).
The PVR is a derived parameter from parameters directly measured during the right heart catheterization procedure. The direct parameters included in the calculation are: mean pulmonary arterial pressure [mmHg](mPAP), pulmonary capillary wedge pressure [mmHg](PCWP), and cardiac output [1/min](CO). The PVR is calculated according to the formula: PVR [dyn*sec*cm^−5]=80*(mPAP−PCWP)/CO.

[8] = Micronization of monohydrate II and monohydrate I (spiral jet mill): solid form after micronization; format: physicochemical; details: example 8e: 100 mm spiral jet mill
Excerpt: Generally no amorphization even partial nor form conversion should happen during the necessary micronization step.
The corresponding batches (examples 8a-8d) were micronized using a 50 mm spiral jet mill and pressurized nitrogen with the following parameters (see table 16b).
The corresponding batches were micronized using a 100 mm spiral jet mill and pressurized nitrogen with the following parameters (see table 16c).

Row | SMILES | effect on airway hyper-responsiveness and inflammation [1] | free fraction, lower than comparative example 1 (plasma proteins [2]) [times lower] | Relative lung deposited dose in minipig ([3]; 3 μg/kg nominal dose) [µg/kg] | Relative lung deposited dose in minipig ([3]; 10 μg/kg nominal dose) [µg/kg] | Relative lung deposited dose in minipig ([3]; 30 μg/kg nominal dose) [µg/kg] | Relative lung deposited dose in minipig ([3]; 100 μg/kg nominal dose) [µg/kg] | free fraction, lower than comparative example 1 (plasma proteins [4]) [times lower] | effect on PAP and oxygenation [5] | storage stability [6] | mean pulmonary arterial pressure (mPAP), mean ± SD ([7]; 1000 μg inhaled single dose, N = 4, 0 D 03 H 00 M) [mmHg] | enduring mean change of PVR from baseline ([7]; 2000 μg group) | enduring mean change of PVR from baseline ([7]; 4000 μg group) | effect sustained with no decrease in response until end of measurement period ([7]; PVR after single inhaled dose) [h] | tolerability ([7]; including the highest dose of 4000 μg) | stability under micronization conditions [8]
1 | O=C(O)c1ccc(CCN(CCc2ccccc2OCc2ccc(-c3ccc(C(F)(F)F)cc3)cc2Cl)[C@H]2CCCc3nc(C(=O)O)ccc32)cc1 [Comparative example 11, (5S)-5-{[2-(4-carboxyphenyl)ethyl][2-(2-{[3-chloro-4′-(trifluoromethyl)[biphenyl]-4-yl]methoxy}phenyl)ethyl]amino}-5,6,7,8-tetrahydroquinoline-2-carboxylic Acid] | inhibitory effect on airway hyper-responsiveness and inflammation | 2 | 0.15 | 0.50 | 1.5 | 5.0 | 2 | lowered PAP without negative effects on oxygenation |  |  |  |  |  |  | 
2 | O=C(O)c1ccc(CCN(CCc2ccccc2OCc2ccc(-c3ccc(C(F)(F)F)cc3)cc2Cl)[C@H]2CCCc3nc(C(=O)O)ccc32)cc1 [Example 4, (5S)—{[2-(4-Carboxyphenyl)ethyl][2-(2-{[3-chloro-4′-(trifluoromethyl)biphenyl-4-yl]methoxy}phenyl)-ethyl]amino}-5,6,7,8-tetrahydroquinoline-2-carboxylic Acid as Monohydrate I] |  |  |  |  |  |  |  |  | stable | 34.0 ± 11.6 | approximately −30% | approximately −30% | ≥ 3 | good tolerability | stable
